Where two headings read alike, the source gives them in different places.
System: test plant species
Experiment: Post-emergent herbicidal activity test (greenhouse, foliar spray, visual growth reduction)
Assay type: in vivo
Details: post-emergence, 336 h, 140 g ai/ha
How it was run: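 Greenhouse plants at first–second true leaf stage sprayed overhead at 187 L/ha with compound in acetone/water/isopropanol/DMSO/crop oil/X-77 carrier; controls received solvent blank. Injury rated visually after 14 d on a 0–100% scale versus untreated and control plants, converted to growth reduction.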

[1] = ALOMY: blackgrass (Alopecurus myosuroides), 14 days after application, read-out: Visual Growth Reduction (%) 14 Days After Application, ALOMY
[2] = AMARE: redroot pigweed (Amaranthus retroflexus), 14 days after application, read-out: Visual Growth Reduction (%) 14 Days After Application, AMARE
[3] = AVEFA: wild oat (Avena fatua), 14 days after application, read-out: Visual Growth Reduction (%) 14 Days After Application, AVEFA
[4] = CHEAL: lambsquarters (Chenopodium album), 14 days after application, read-out: Visual Growth Reduction (%) 14 Days After Application, CHEAL
[5] = CIRAR: canada thistle (Cirsium arvense), 14 days after application, read-out: Visual Growth Reduction (%) 14 Days After Application, CIRAR
[6] = CYPES: yellow nutsedge (Cyperus esculentus), 14 days after application, read-out: Visual Growth Reduction (%) 14 Days After Application, CYPES
[7] = DIGSA: crabgrass (Digitaria sanguinalis), 14 days after application, read-out: Visual Growth Reduction (%) 14 Days After Application, DIGSA
[8] = ECHCG: barnyardgrass (Echinochloa crus-galli), 14 days after application, read-out: Visual Growth Reduction (%) 14 Days After Application, ECHCG
[9] = IPOHE: ivy-leaf morning glory (Ipomoea hederacea), 14 days after application, read-out: Visual Growth Reduction (%) 14 Days After Application, IPOHE
[10] = KCHSC: kochia (Bassia scoparia), 14 days after application, read-out: Visual Growth Reduction (%) 14 Days After Application, KCHSC
[11] = ORYSA: rice (Oryza sativa), 14 days after application, read-out: Visual Growth Reduction (%) 14 Days After Application, ORYSA
[12] = SETFA: giant foxtail (Setaria faberi), 14 days after application, read-out: Visual Growth Reduction (%) 14 Days After Application, SETFA
[13] = SORVU: grain sorghum (Sorghum vulgare), 14 days after application, read-out: Visual Growth Reduction (%) 14 Days After Application, SORVU
[14] = STEME: common chickweed (Stellaria media), 14 days after application, read-out: Visual Growth Reduction (%) 14 Days After Application, STEME
[15] = TRZAS: wheat, spring (Triticum aestivum), 14 days after application, read-out: Visual Growth Reduction (%) 14 Days After Application, TRZAS

COC(=O)c1nc(-c2ccc(C(F)(F)C#N)cc2Cl)ccc1Cl [F178, Methyl 3-chloro-6-(2-chloro-4-(cyanodifluoromethyl)phenyl)picolinate]
pest or weed control at 140 g/ha [1]: 0 to 29% | pest or weed control at 140 g/ha [2]: 0 to 29% | pest or weed control at 140 g/ha [3]: 0 to 29% | pest or weed control at 140 g/ha [4]: 0 to 29% | pest or weed control at 140 g/ha [5]: 0 to 29% | pest or weed control at 140 g/ha [6]: 0 to 29% | pest or weed control at 140 g/ha [7]: 0 to 29% | pest or weed control at 140 g/ha [8]: 0 to 29% | pest or weed control at 140 g/ha [9]: 0 to 29% | pest or weed control at 140 g/ha [10]: 0 to 29% | pest or weed control at 140 g/ha [11]: 0 to 29% | pest or weed control at 140 g/ha [12]: 0 to 29% | pest or weed control at 140 g/ha [13]: 0 to 29% | pest or weed control at 140 g/ha [14]: 0 to 29% | pest or weed control at 140 g/ha [15]: 0 to 29%

N#Cc1cc(C(F)(F)F)cc(Cl)c1-c1ccc(Cl)c(C(=O)O)n1 [F162, 3-Chloro-6-(2-chloro-6-cyano-4-(trifluoromethyl)phenyl)picolinic acid]
pest or weed control at 140 g/ha [1]: 0 to 29% | pest or weed control at 140 g/ha [2]: 95 to 100% | pest or weed control at 140 g/ha [3]: 30 to 44% | pest or weed control at 140 g/ha [4]: 95 to 100% | pest or weed control at 140 g/ha [5]: 85 to 94% | pest or weed control at 140 g/ha [6]: 0 to 29% | pest or weed control at 140 g/ha [7]: 75 to 84% | pest or weed control at 140 g/ha [8]: 95 to 100% | pest or weed control at 140 g/ha [9]: 95 to 100% | pest or weed control at 140 g/ha [10]: 95 to 100% | pest or weed control at 140 g/ha [11]: 0 to 29% | pest or weed control at 140 g/ha [12]: 85 to 94% | pest or weed control at 140 g/ha [13]: 60 to 74% | pest or weed control at 140 g/ha [14]: 0 to 29% | pest or weed control at 140 g/ha [15]: 45 to 59%

COC(=O)c1nc(-c2ccc(C(F)(F)F)cc2C(N)=O)c(Cl)cc1Cl [F147, Methyl 6-(2-carbamoyl-4-(trifluoromethyl)phenyl)-3,5-dichloropicolinate]
pest or weed control at 140 g/ha [1]: 0 to 29% | pest or weed control at 140 g/ha [2]: 45 to 59% | pest or weed control at 140 g/ha [3]: 0 to 29% | pest or weed control at 140 g/ha [4]: 30 to 44% | pest or weed control at 140 g/ha [5]: 0 to 29% | pest or weed control at 140 g/ha [6]: 0 to 29% | pest or weed control at 140 g/ha [7]: 0 to 29% | pest or weed control at 140 g/ha [8]: 0 to 29% | pest or weed control at 140 g/ha [9]: 30 to 44% | pest or weed control at 140 g/ha [10]: 0 to 29% | pest or weed control at 140 g/ha [11]: 0 to 29% | pest or weed control at 140 g/ha [12]: 0 to 29% | pest or weed control at 140 g/ha [13]: 0 to 29% | pest or weed control at 140 g/ha [14]: 0 to 29% | pest or weed control at 140 g/ha [15]: 0 to 29%

C#Cc1cc(C(F)(F)F)cc(Cl)c1-c1ccc(Cl)c(C(=O)OC)n1 [F239, methyl 3-chloro-6-(2-chloro-6-ethynyl-4-(trifluoromethyl)phenyl)picolinate]
pest or weed control at 140 g/ha [8]: 0 to 29% | pest or weed control at 140 g/ha [9]: 75 to 84% | pest or weed control at 140 g/ha [10]: 0 to 29% | pest or weed control at 140 g/ha [11]: 0 to 29% | pest or weed control at 140 g/ha [12]: 0 to 29% | pest or weed control at 140 g/ha [13]: 60 to 74% | pest or weed control at 140 g/ha [14]: 0 to 29% | pest or weed control at 140 g/ha [15]: 0 to 29% | pest or weed control at 140 g/ha (blackgrass (Alopecurus myosuroides), 14 Days After Application, read-out: Visual Growth Reduction (%) ALOMY): 0 to 29% | pest or weed control at 140 g/ha (canada thistle (Cirsium arvense), 14 Days After Application, read-out: Visual Growth Reduction (%) CIRAR): 0 to 29% | pest or weed control at 140 g/ha (crabgrass (Digitaria sanguinalis), 14 Days After Application, read-out: Visual Growth Reduction (%) DIGSA): 0 to 29% | pest or weed control at 140 g/ha (lambsquarters (Chenopodium album), 14 Days After Application, read-out: Visual Growth Reduction (%) CHEAL): 30 to 44% | pest or weed control at 140 g/ha (redroot pigweed (Amaranthus retroflexus), 14 Days After Application, read-out: Visual Growth Reduction (%) AMARE): 0 to 29% | pest or weed control at 140 g/ha (wild oat (Avena fatua), 14 Days After Application, read-out: Visual Growth Reduction (%) AVEFA): 0 to 29% | pest or weed control at 140 g/ha (yellow nutsedge (Cyperus esculentus), 14 Days After Application, read-out: Visual Growth Reduction (%) CYPES): 0 to 29%

COC(=O)c1nc(-c2cc(OC)c(Cl)cc2Cl)ccc1Cl [F47, Methyl 3-chloro-6-(2,4-dichloro-5-methoxyphenyl) picolinate]
pest or weed control at 140 g/ha [1]: 0 to 29% | pest or weed control at 140 g/ha [2]: 0 to 29% | pest or weed control at 140 g/ha [3]: 0 to 29% | pest or weed control at 140 g/ha [4]: 0 to 29% | pest or weed control at 140 g/ha [5]: 0 to 29% | pest or weed control at 140 g/ha [6]: 0 to 29% | pest or weed control at 140 g/ha [7]: 0 to 29% | pest or weed control at 140 g/ha [8]: 0 to 29% | pest or weed control at 140 g/ha [10]: 0 to 29% | pest or weed control at 140 g/ha [11]: 0 to 29% | pest or weed control at 140 g/ha [12]: 0 to 29% | pest or weed control at 140 g/ha [13]: 0 to 29% | pest or weed control at 140 g/ha [14]: 0 to 29% | pest or weed control at 140 g/ha [15]: 0 to 29%

Source: patent publication US20230017045A1, “PYRIDINE AND PYRIMIDINE CARBOXYLATE HERBICIDES AND METHODS OF USE THEREOF” (Dow AgroSciences LLC, priority 2017, published 2023)
